{"source": "patent EP4745145A1", "about": "“SALT OF THIAZOLOPYRAZINE COMPOUND OR CRYSTAL THEREOF AND USE THEREOF” (Simcere Zaiming Pharmaceutical Co., Ltd., priority 2023, dated 2025)", "type_in_all_cases": "cell-based", "key": {"[1]": {"test_system": "POLQ-mediated MMEJ pathway", "assay": "Inhibition of cellular MMEJ pathway (NanoLuciferase reporter in HEK293T cells)", "conditions": "24 h", "description": "Brief introduction to experimental principle: POLQ is a key protein in the repair process of cellular MMEJ. The NanoLuciferase MMEJ repair reporter system was transferred into HEK293T cells. When the MMEJ repair pathway was normally performed in the cells, the NanoLuciferase reporter protein was correctly expressed, and the cell luminescence signal could be detected. The decrease in cell luminescence was measured using a BMG multifunctional microplate reader from BMG LABTECH to reflect the inhibition of the compound on the cellular MMEJ pathway.\nExperimental methods: The test compound was diluted to different concentrations with dimethyl sulfoxide (DMSO) using an Echo 655 pipetting system and transferred to a 384-well plate. In the reaction system, the compound was serially diluted 3-fold from the final concentration of 10 µM. The final concentration of DMSO was 0.1%. HEK293T cells were collected, an MMEJ luciferase […] was transferred to the cells using a Neon transfection system, and the transfected HEK293T cells at 4000 cells/well were diluted with a DMEM medium containing 10% FBS and added to a 384-well plate (25 µL/well).\nThe compound inhibition rate was calculated and fitted using XLfit software to give the IC50 of the compounds. A Blank well and a DMSO well were set in the experiment."}, "DLD-1 parent cells": {"test_system": "DLD-1 parent cells", "assay": "Inhibition of tumor cell proliferation (CTG, 7 days)", "conditions": "Homo sapiens, DLD-1, 168 h; 7 days incubation", "description": "(§1) Brief introduction to experimental principle: After the compound was co-incubated with tumor cells for 7 days, the ATP in viable cells was quantified using the CTG kit from Promega to reflect the effect of the compound on tumor cell proliferation.\n(§2) Experimental methods: DLD-1 parent cells or DLD-1 BRCA2 (-/-) cells were diluted with an RPMI 1640 medium containing 10% FBS and then added to a 96-well plate (90 µL/well), with the number of cells being 600/well or 1200/well, respectively, and incubated overnight in an incubator at 37 °C with 5% CO2. The test compound was diluted to different concentrations with dimethyl sulfoxide (DMSO) and then added to a 96-well plate, such that, in the reaction system, the compound was serially diluted 4-fold from the final concentration of 25 µM. The concentration range of the compound was from 25 µM to 0.0004 µM, and the final concentration of DMSO was 0.25% v/v. After incubation for 7 days, 50 µL/well of CTG was added, and the mixture was incubated at room temperature for 10 min. The luminescence (Lum) signal value was read using an Envision microplate reader, and the inhibition rate and half inhibitory concentration (IC50) were calculated.\n(§3) A Blank well and a DMSO well were set in the experiment. […] Inhibition rate = 100 × (Lummax−Lumcompound)/(Lummax−Lummin)% [formula] wherein Lummax refers to the luminescence signal value of the well containing cells and 0.25% v/v DMSO, and Lumcompound refers to the luminescence signal value of the well containing the compound and cells. Lummin refers to the luminescence signal value of the well containing the medium and 0.25% v/v DMSO."}, "DLD-1 BRCA2 (-/-) cells": {"test_system": "DLD-1 BRCA2 (-/-) cells", "assay": "Inhibition of tumor cell proliferation (CTG, 7 days)", "description": "as §1, §2, §3"}}, "data": [{"smiles": "COc1ccc(Cl)cc1-c1cc(C)ncc1C(=O)Nc1nc2ncc(-c3ccc(C#N)cc3)nc2s1", "note": "[Compound of formula I, 4-(5-chloro-2-methoxyphenyl)-N-[6-(4-cyanophenyl)thiazolo[4,5-b]pyrazin-2-yl]-6-methylnicotinamide]", "values": [{"measurement": "inhibitory activity on the POLQ-mediated MMEJ pathway in cells", "setting": "[1]", "result": "strong inhibitory activity"}, {"measurement": "IC50", "setting": "DLD-1 parent cells", "result": "≥ 10", "unit": "µM"}, {"measurement": "inhibitory effect on tumor cells with BRCA2 mutation", "setting": "DLD-1 BRCA2 (-/-) cells", "result": "good inhibitory effect"}, {"measurement": "selectivity", "setting": "DLD-1 BRCA2 (-/-) cells", "result": "good selectivity"}, {"measurement": "IC50", "setting": "DLD-1 BRCA2 (-/-) cells; Homo sapiens, DLD-1, 168 h, 7 days incubation", "result": "< 0.2", "unit": "µM"}]}]}
